# From patent publication US8044206B2, “Nitrogen—containing heterocyclic derivatives having 2,6-disubstituted styryl” (Astellas Pharma Inc., priority 2003, dated 2011)
# Structures can show the parent of a compound that is named as a salt.
# Test system: sodium channel
# Assay: [14C] guanidine uptake induced by veratridine in rat cerebral cortex primary neurons (sodium channel inhibitory action)
# Type: cell-based
# Details: [14C] guanidine uptake induced by 100 μM veratridine, specific uptake = portion inhibited by 1 mM mexiletine, read-out: Na Channel Inhibition IC50
# Experimental: The [^14C] guanidine uptake experiment was performed by the method of Bonisch et al. (British Journal of Pharmacology 108, 436-442, 1993) with some modifications. The [^14C] guanidine was used as a sodium tracer, and the inhibitory activity on uptake of [^14C] guanidine induced by veratridine as a sodium channel activator into rat cerebral cortex primary neurons was measured.
# Pregnant rats (Wistar, female, 19 days of gestation) were anesthetized with ether. The animals were bled to death by giving incision through the carotid artery. The fetuses were taken out of the pregnant rats and after ethanol sterilization, the cerebral cortex was removed from the fetuses. The cerebral cortex was digested with papain and dispersed in culture medium, followed by plating on a poly-L-lysine-coated 96-well white plate at a density of 2.5×10^5 cells/well. Incubation was performed in a CO2 incubator (37° C., 5% CO2) for 2 days.
# After each well was washed once with an assay buffer (135 mM choline Cl, 5 mM KCl, 1 mM MgSO4, 5.5 mM glucose, 1 mg/mL BSA, 10 mM Hepes-Tris, pH 7.4), a fresh assay buffer was added to the well, followed by incubation at 25° C. for 10 minutes. Then, a reaction solution (a test compound, [^14C] guanidine and 100 μM, veratridine) was replaced for the buffer, followed by incubation at 25° C. for 15 minutes. The reaction was terminated by washing 3 times with a cold wash buffer (135 mM NaCl, 5 mM KCl, 1 mM MgSO4, 10 mM Hepes-Tris, pH 7.4). To each well, 17 μl of 0.1N NaOH was added. After agitation, 100 μl of scintillator was added to the well and further agitation was continued. The radioactivity was quantified by a liquid scintillation counter. In each experiment, the sodium channel-specific uptake of the whole uptake was designated as portion that was inhibited by 1 mM mexiletine. The action of the test compound on sodium channel is expressed as 50% inhibition concentration (IC50) based on the specific uptake.
row,SMILES,IC50 [µM]
1,Cc1cccc(C)c1/C=C/c1ccncc1 [Example 25-2],29
2,CCc1cccc(CC)c1/C=C/C1CCNCC1 [Example 40],8.4
3,CCCCN(CCCC)C(=O)c1cc(C)c(/C=C/C2CCNCC2)c(C)c1 [Example 51],15
4,COc1cc(C)c(/C=C/C2CCNCC2)c(C)c1 [Example 54],19
5,Cc1cc(Br)cc(C)c1/C=C\C1CCNCC1 [Example 56],6.7
6,"Cc1cccc(C)c1/C=C/[C@H]1CCNC[C@@H]1C [Example 68, 4-[(E)-2-(2,6-dimethylphenyl)vinyl]-3-methylpiperidine hydrochloride]",8.7
7,"Cc1cccc(C)c1/C=C/C1CCN(Cc2ccccc2)CC1 [Example 73, 1-benzyl-4-[(E)-2-(2,6-dimethylphenyl)vinyl]piperidine]",1.9
8,COCCN1CCC(/C=C/c2c(C)cccc2C)CC1 [Example 75],3.5
9,O=C(CN1CCOCC1)N1CCC(/C=C/c2c(Cl)cccc2Cl)CC1 [Example 98],12
10,Cc1cccc(C)c1/C=C/CC1CCN(C(=O)CN2CCOCC2)CC1 [Example 103],5
11,Cc1cccc(C)c1C=CC1CCN(C(=O)C2COCCN2)CC1 (centres unmarked) [Example 122],9.4
12,"Cc1cccc(C)c1/C=C/C1CCN(C(=O)CNC2CCOCC2)CC1 [Example 129, (2-{4-[(E)-2-(2,6-dimethylphenyl)vinyl]piperidin-1-yl}-2-oxoethyl)tetrahydro-2H-pyran-4-ylamine]",4.2
13,Cc1cccc(C)c1C=CC1CCN(C(=O)CNCC2CCCO2)CC1 (centres unmarked) [Example 130],3.4
14,Cc1cccc(C)c1/C=C/C1CCN(C(=O)CN2CC=CC2)CC1 [Example 145],6
15,"Cc1cccc(C)c1C=CC1CCN(C(=O)CN2CC(C)CC(C)C2)CC1 (centres unmarked) [Example 153, 1-(2-{4-(E)-2-(2,6-dimethylphenyl)vinyl]piperidin-1-yl}-2-oxoethyl)-3,5-dimethyl piperidine]",2.4
16,Cc1cccc(C)c1/C=C/C1CCN(C(=O)CN2CCC(Cc3ccccc3)CC2)CC1 [Example 165],2.3
17,Cc1cccc(C)c1/C=C/C1CCN(C(=O)CN2CCN(C3CCCCC3)CC2)CC1 [Example 176],2.5
18,Cc1cccc(C)c1/C=C/C1CCN(C(=O)CN2CCSCC2)CC1 [Example 185],6.7
19,Cc1cccc(C)c1C=CC1CCN(C(=O)CN2CCCC3CCCCC32)CC1 (centres unmarked) [Example 192],1.1
20,Cc1cccc(C)c1/C=C/C1CCN(C(=O)CNCCN)CC1 [Example 198],8.5
21,Cc1cccc(C)c1C=CC1CCN(C(=O)CN(C)CC2CCCO2)CC1 (centres unmarked) [Example 211],3
22,Cc1cccc(C)c1/C=C/C1CCN(C(=O)CN(C)CCN2CCOCC2)CC1 [Example 213],3.7

# Test system: mice with streptozotocin (STZ)-induced diabetic neuropathy
# Assay: Analgesic action in mice with streptozotocin (STZ)-induced diabetic neuropathy, tail pinch test
# Type: in vivo
# Details: male ICR mice, Day 15 after STZ, oral 30 mg/kg, 45 minutes prior to measurement, latency after minus before administration
# Experimental: Representative compounds of Compound (I) of the present invention were assessed for the analgesic action in mice with streptozotocin (STZ)-induced diabetic neuropathy to confirm the effect on neuropathic pain. The assessment was performed by the method of Kamei et al. (Pharmacology Biochemistry & Behavior 39, 541-544, 1991) with some modifications.
# Male ICR mice of 4 weeks old were intraperitoneally injected with 200 mg/kg weight of STZ to prepare mice with diabetic neuropathic pain. The analgesic action was assessed by the tail pinch test. […] On Day 14 following the STZ injection, a pretest was carried out to determine the response latency before the administration of a test compound. Only the animals showing not longer than 3 seconds of the response latency in the pretest were used for the test compound assessment on the following day (Day 15 after STZ injection).
# In the test compound assessment, the response latency after the administration of a test compound was measured. The test compound was orally administered at a dose of 30 mg/kg, 45 minutes prior to the response latency measurement
# The analgesic action of a test compound is expressed as prolongation of latency (in seconds) calculated by the formula: (response latency after administration of a test compound)−(response latency before administration of a test compound).
row,SMILES,Anti-STZ-induced pain after oral administration: Latency prolongation [s]
1,"Cc1cc(C#N)cc(C)c1/C=C/C1CCNCC1 [Example 49, 3,5-dimethyl-4-[(E)-2-piperidin-4-ylvinyl]benzonitrile]",2.2
2,"Cc1cccc(C)c1/C=C/C1CCN(C(=O)c2nc(N)n[nH]2)CC1 [Example 87, 5-({4-[(E)-2-(2,6-dimethylphenyl)vinyl]piperidin-1-yl}carbonyl)-1H-1,2,4-triazol-3-amine]",1.6
3,"Cc1cc(Oc2ccccc2)cc(C)c1/C=C/C1CCN(C(=O)CN2CCOCC2)CC1 [Example 99, 4-(2-{4-[(E)-2-(2,6-dimethyl-4-phenoxyphenyl)vinyl]piperidin-1-yl}-2-oxoethyl) morpholine]",1.7
4,Cc1cccc(C)c1/C=C/C1CCCN(C(=O)CN2CCOCC2)C1 (centres unmarked) [Example 101],2.0
5,"Cc1cccc(C)c1/C=C/C1CCCCN1C(=O)CN1CCOCC1 (centres unmarked) [Example 102, 4-(2-{2-[(E)-2-(2,6-dimethylphenyl)vinyl]piperidin-1-yl}-2-oxoethyl)morpholine]",2.1
6,"Cc1cccc(C)c1/C=C/C1CCN(C(=O)CN2CCN(C(=O)c3cccnc3)CC2)CC1 [Example 105, 1-(2-{4-[(E)-2-(2,6-dimethylphenyl)vinyl]piperidin-1-yl}-2-oxoethyl)-4-(pyridin-3-ylcarbonyl)piperazine]",1.8
7,"Cc1cccc(C)c1/C=C/C1CCN(C(=O)C(C)(C)N)CC1 [Example 108, (2-{4-[(E)-2-(2,6-dimethylphenyl)vinyl]piperidin-1-yl}-1,1-dimethyl-2-oxoethyl)amine monohydrochloride]",1.8
8,"Cc1cccc(C)c1/C=C/C1CCN(C(=O)C2(N)CCC2)CC1 [Example 110, [1-({4-[(E)-2-(2,6-dimethylphenyl)vinyl]piperidin-1-yl}carbonyl)cyclobutyl]amine]",2.1
9,"Cc1cccc(C)c1/C=C/C1CCN(C(=O)[C@@H]2CCCN2)CC1 [Example 114, 4-[(E)-2-(2,6-dimethylphenyl)vinyl]-1-[(2S)-pyrolidin-2-ylcarbonyl]piperidine]",2.4
10,"Cc1cccc(C)c1/C=C/C1CCN(C(=O)Cn2ccnc2)CC1.Cl [Example 125, 4-[(E)-2-(2,6-dimethylphenyl)vinyl]-1-(1H-imidazol-1-ylacetyl)piperidine monohydrochloride]",1.6
11,"Cc1cccc(C)c1/C=C/C1CCN(C(=O)CNC2COC2)CC1 [Example 126, N-(2-{4-[(E)-2-(2,6-dimethylphenyl)vinyl]piperidin-1-yl}-2-oxoethyl)oxetane-3-amine]",1.5
12,"CC(=O)NCCNCC(=O)N1CCC(/C=C/c2c(C)cccc2C)CC1 [Example 134, N-{2-[(2-[4-[(E)-2-(2,6-dimethylphenyl)vinyl]piperidin-1-yl]-2-oxoethyl)amino]ethyl}acetamide]",1.7
13,"Cc1cccc(C)c1/C=C/C1CCN(C(=O)CNCCO)CC1 [Example 135, 2-[(2-{4-[(E)-2-(2,6-dimethylphenyl)vinyl]piperidin-1-yl}-2-oxoethyl)amino]ethanol]",2.4
14,"Cc1cccc(C)c1/C=C/C1CCN(C(=O)CN2CCCCC2C(N)=O)CC1 (centres unmarked) [Example 150, 1-(2-{4-[(E)-2-(2,6-dimethylphenyl)vinyl]piperidin-1-yl}-2-oxoethyl)piperidine-2-carboxamide]",1.7
15,"Cc1cccc(C)c1/C=C/C1CCN(C(=O)CN2CCC(N3CCCC3)CC2)CC1 [Example 170, 4-[(E)-2-(2,6-dimethylphenyl)vinyl]-1-[(4-pyrolidin-1-ylpiperidin-1-yl)acetyl]piperidine]",1.7
16,"Cc1cccc(C)c1/C=C/C1CCN(C(=O)CN2CCOCC2)CC1 [Example 179, 4-(2-{4-[(E)-2-(2,6-dimethylphenyl)vinyl]piperidin-1-yl}-2-oxoethyl)morpholine]",1.8
17,"Cc1cccc(C)c1/C=C/C1CCN(C(=O)CN2CCOC(CO)C2)CC1 (centres unmarked) [Example 180, [4-(2-{4-[(E)-2-(2,6-dimethylphenyl)vinyl]piperidin-1-yl}-2-oxoethyl)morpholine-2-yl]methanol]",2.3
18,"Cc1cccc(C)c1/C=C/C1CCN(C(=O)CN2CCCOCC2)CC1 [Example 189, 4-(2-{4-[(E)-2-(2,6-dimethylphenyl)vinyl]piperidin-1-yl}-2-oxoethyl)-1,4-oxazepane]",2.4
19,"Cc1cccc(C)c1/C=C/C1CCN(C(=O)CN2CCC(N)CC2)CC1 [Example 203, 1-(2-{4-[(E)-2-(2,6-dimethylphenyl)vinyl]piperidin-1-yl}-2-oxoethyl)piperidine-4-amine]",1.7
